Source: US12208085B2, “Pyrazoline-derived compound for use in the prevention and/or treatment of pain and inflammation associated to surgery in mammals” (ECUPHAR NV, priority 2022, dated 2025)

Assays:
Format in all cases: in vivo
[1] = tested on: dogs undergoing orthopaedic surgery; assay: Non-inferiority field study, postoperative pain and inflammation after orthopaedic surgery (SFGCMPS, VAS), meloxicam control
Description: The study was a non-inferiority, multicentre, prospective, parallel-controlled, randomized and blinded field study.
Thirty-two dogs of different breed, age and weight presenting at the veterinary practice for orthopaedic surgery were included.
Agents with analgesic effect were permitted as premedication. However, intraoperative or postoperative analgesia were not permitted.
For each dog the study lasted twelve days. Two days before surgery, all animals were weighed and underwent a thorough physical examination with clinical pathology to confirm the good health status of the animals before inclusion. Day 0 (D0) was the day dogs underwent surgery and t0 h corresponded to the end of surgery (extubation). The physical examination was repeated on D0, before surgery (t−2 h) and before dispatch (t8 h) and again at t24 h (D1) and t168 (D7) post-surgery. Clinical assessments of pain and inflammation were blindly performed on D0, before surgery (t−2 h) and again at t1.5 h, t3 h, t5 h, t8 h, t24 h (D1) and t168 h (D7) post-surgery. The global efficacy of treatments was assessed on D7. From day D1 to day D7 post-surgery, the owners assessed the dog's wellbeing.
The primary endpoint for efficacy comprises the sum of scores for the SFGCMPS scale, which was assessed at different time points by the Investigator.
From day D1 to D7, owners daily assessed the dogs' wellbeing using scales for: • Demeanour (0=normal; 1=slightly modified; 2=moderately modified; 3=markedly modified and 4=severely modified). • Mobility (0=normal; 1=slightly impaired; 2=moderately impaired; 3=markedly impaired and 4=severely impaired). • Quality of analgesia as very satisfactory (=1); satisfactory (=2); not very satisfactory (=3); not at all satisfactory (=4).
Blood samples were collected from all animals before inclusion (≤D−2), for routine pre-surgery blood profile. Potential adverse effects related to the products were also recorded.
Statistical Analysis was performed by use of commercially available software. All analyses used a two-sided significance level α=0.05. […]

[2] = tested on: dogs undergoing experimental orthopaedic surgery; assay: Postoperative pain after experimental knee surgery (Maquet Modified Procedure), SFGCPS scoring; conditions: Beagle dogs
Description: The study was performed with 6 clinically healthy Beagle dogs with similar age and weight that were experimentally subjected to knee surgery (repair of cranial cruciate ligament rupture). […] All surgeries were conducted under the same preoperative, intraoperative and postoperative protocols and performed by the same surgeon. A highly standardized surgical technique, Maquet Modified Procedure (MMP) (12) was implemented.
For each dog the study lasted 17 days, including a 7-day acclimatization period. On day D−1 (approximately 24 h before the intervention) the five dogs in the TG received a single oral dose (8 mg/kg) of the TP, the one dog in the CG received a single subcutaneous dose (0.1 mg/kg) of the RP. […] On day D0 all dogs underwent knee surgery in the right knee. From day D1 up to day D10 dogs were closely examined and signs of pain and discomfort were blindly evaluated and rated using the Short Form of the Glasgow Composite Pain Scale (SFGCPS) ranging from 0 to 24 (13 and http://www.newmetrica.com/cmps/). On day D−1 dogs were also examined to rule out signs of pain or discomfort.

[3] = tested on: dogs undergoing soft tissue surgery; assay: Pilot field trial, postoperative pain and inflammation after elective soft tissue surgery (SFGCMPS, VAS), Placebo control; set-up: SFGCMPS Mobility average value / SFGCMPS Demeanour average value / SFGCMPS Posture/Activity average value / Total SFGCMPS average value / SFGCMPS Vocalization average value / SFGCMPS Attention to wound average value: scale not given here
Description: The study was a single centre, prospective, parallel-controlled, randomized and blinded pilot field trial with a negative (Placebo) control to evaluate the efficacy of E-6087 in dogs undergoing elective soft tissue surgery.
Twenty dogs (17 females and 3 males) were included in the study. Dogs were of different breeds or crossbreed, ages from 3 months to 7 years and weights from 4 to 34 kg. All dogs were clinically healthy other than the condition causing the animal to go under surgery.
Two days before surgery animals were weighed, a detailed physical examination was performed, and blood samples were collected for routine haematology and biochemistry to confirm the good health status of the animals before inclusion.
Dogs were randomly allocated to receive either E-6087 or Placebo as oral tablets. E-6087 and Placebo tablets were similar (same appearance and packaging), therefore treatment administration, clinical examinations and blood sample analysis was always blind.
E-6087 was administered at the dose of 8 mg/kg on day D−1, approximately 24 h before surgery scheduled time, before the first meal of the day. Placebo tablets were administered following the same posology.
Surgeries were performed in the morning, on day D0 by the Investigator (Surgeon). All surgeries were performed under the same anaesthesia protocol. Premedication was performed with medetomidine and morphine both at 0.1 ml/10 kg followed by anaesthesia maintained with Tiletamine/Zolazepam (Zoletil®). Local anaesthesia was not permitted. At the end of surgery, antibiotic therapy was administered to all dogs following the post-operative protocol stablished: amoxicillin (trihydrate) at 15 mg of amoxicillin/kg bw in a single dose.
Clinical assessments of postoperative pain and inflammation were done by the Investigator (Examining Veterinarian) using the SFGCMPS (13). Visual Analog Scales (VAS) were also used to assess pain at rest and under palpation as well as the level of inflammation.
On D0 at approximately 2 hours before surgery the Examining Veterinarian performed a physical examination and the clinical assessment of pain and inflammation to determine the basal scores. After surgery pain and inflammation were assessed at six examination time points: t1.5 h, t3 h, t5 h (±30 minutes), t8 h (±1 hour), t24 h and t168 (D7), when t0 h corresponded to the end of surgery (extubation).
Clinical assessment of pain and inflammation included assessments of vocalization, attention to wound area, mobility, reaction to pressure at the wound area, general behaviour as well as activity and posture as per SFGCMPS. In addition, pain at rest and after palpation as well as the level of inflammation were assessed at the same time points by VAS ranging from 0 (no pain) to 100 (severe pain manifested by vocalization, aggression, and refusal to allow examination) and from 0 (no inflammation) to 100 (major inflammation as local heat, redness or paresis of the affected area).
Statistical Analysis was performed by use of commercially available software (SigmaPlot for Windows version 13.0). The area under the curve (AUC) was calculated for observable pain during the initial 8 and 24 hours, and it was considered as the primary efficacy variable. All analyses applied a two-sided significance level α=0.05 and a power β=80%. Demographic and baseline data were compared using the Mann-Whitney U test. Gender was compared with the Fisher exact probability test in contingency tables. Efficacy variables were analysed by repeated measures ANOVA.
The foremost surgical procedure was ovariohysterectomy, and this determined that most included animals were females. Sixteen females were ovariohysterectomized. Two males were castrated by cryptorchidectomy. […] All surgeries lasted less than 30 minutes except for one that lasted 54 minutes (perineal hernia).

[4] = 8 mg/kg oral D-1, 1.5 h after surgery
[5] = 8 mg/kg oral D-1, 3 h after surgery
[6] = 8 mg/kg oral D-1, 5 h after surgery
[7] = 8 mg/kg oral D-1, 8 h after surgery
[8] = 8 mg/kg oral D-1, 24 h after surgery

## NS(=O)(=O)c1ccc(N2N=C(C(F)(F)F)CC2c2ccc(F)cc2F)cc1 (stereo not shown) [E-6087, enflicoxib]
[1]; 8 mg/kg oral D-1, 3 h after surgery, p=0.025
  level of inflammation (VAS), compared with meloxicam: lower values
[1]; 8 mg/kg oral D-1, D7, p=0.7879
  assessment of global efficacy, compared with meloxicam: No differences were detected
[1]; initial 24 hours after orthopaedic surgery, E-6087 8 mg/kg oral D-1, meloxicam 0.2 mg/kg D0 then 0.1 mg/kg daily to D7
  SFGCMPS (AUC), primary efficacy variable, average value: 95.50±57.70
[2]; single oral dose 8 mg/kg on D-1
  potential adverse effects related to product administration: No potential adverse effects
[2]; single oral dose 8 mg/kg on D-1, 10 days follow up
  need of rescue analgesia: None of the animals needed rescue analgesia
[2]; single oral dose 8 mg/kg on D-1, knee surgery D0
  analgesic efficacy in the postoperative period after orthopaedic surgery: effective as analgesic agent
[3]; [4]
  SFGCMPS Attention to wound average value: 0
  SFGCMPS Demeanour average value: 0.83
  SFGCMPS Mobility average value: 0.33
  SFGCMPS Posture/Activity average value: 0.17
  SFGCMPS Pressure on wound average value: 0.33
  SFGCMPS Vocalization average value: 0.25
  Total SFGCMPS average value: 1.92
[3]; [5]
  SFGCMPS Attention to wound average value: 0.08
  SFGCMPS Demeanour average value: 0.50
  SFGCMPS Mobility average value: 0
  SFGCMPS Posture/Activity average value: 0.08
  SFGCMPS Pressure on wound average value: 0.42
  SFGCMPS Vocalization average value: 0.25
  Total SFGCMPS average value: 1.33
[3]; 8 mg/kg oral D-1, 3 hours after surgery, p=0.021, Placebo greater
  level of inflammation (VAS), compared with Placebo: statistically significant differences
[3]; [6]
  SFGCMPS Attention to wound average value: 0.08
  SFGCMPS Demeanour average value: 0.17
  SFGCMPS Mobility average value: 0
  SFGCMPS Posture/Activity average value: 0
  SFGCMPS Pressure on wound average value: 0.50
  SFGCMPS Vocalization average value: 0
  Total SFGCMPS average value: 0.75
[3]; [7]
  SFGCMPS Attention to wound average value: 0
  SFGCMPS Demeanour average value: 0
  SFGCMPS Mobility average value: 0
  SFGCMPS Posture/Activity average value: 0
  SFGCMPS Pressure on wound average value: 0.67
  SFGCMPS Vocalization average value: 0
  Total SFGCMPS average value: 0.50
[3]; [8]
  SFGCMPS Attention to wound average value: 0
  SFGCMPS Demeanour average value: 0
  SFGCMPS Mobility average value: 0
  SFGCMPS Posture/Activity average value: 0
  SFGCMPS Pressure on wound average value: 0.50
  SFGCMPS Vocalization average value: 0
  Total SFGCMPS average value: 0.50
[3]; 8 mg/kg oral D-1, difference not statistically significant (p=0.266)
  AUC (primary efficacy variable) for the first 24 hours after surgery, compared with Placebo: almost half
[3]; 8 mg/kg oral D-1, first 8 hours after surgery
  SFGCMPS AUC0→8 h: 8.0 ± 5.0
[3]; 8 mg/kg oral D-1, first 24 hours after surgery
  SFGCMPS AUC0→24 h: 16.0 ± 15
[3]; 8 mg/kg oral D-1, p=0.033
  AUC for the first 8 hours, compared with Placebo: statistically significant lower values
[3]; 8 mg/kg oral D-1, significant only at 1.5, 3 and 5 hours
  Total scores for SFGCMPS at each time point, compared with Placebo: always lower
[3]; 8 mg/kg oral D-1, whole study
  adverse events: No adverse events were observed
[3]; single dose of 8 mg/kg
  alleviation of pain and inflammation after soft tissue surgery (conclusion): effective in alleviating pain and inflammation
